This note sets out measurements from ChEMBL document CHEMBL1149603, “5-Arylidene-2,4-thiazolidinediones as inhibitors of protein tyrosine phosphatases” (Bioorg Med Chem, 2007).

The target in test [1] is T1, Low molecular weight phosphotyrosine protein phosphatase (Homo sapiens, UniProt P24666).
T1 sequence (P24666 whole entry): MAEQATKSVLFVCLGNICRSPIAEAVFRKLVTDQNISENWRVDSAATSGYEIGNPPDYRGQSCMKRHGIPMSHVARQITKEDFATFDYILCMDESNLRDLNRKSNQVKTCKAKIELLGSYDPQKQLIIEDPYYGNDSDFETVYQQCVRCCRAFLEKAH
Briefly: Inhibition of human low molecular weight Protein-tyrosine phosphatase IF2.

In test [2] the target is T2, Tyrosine-protein phosphatase non-receptor type 1 (Homo sapiens, UniProt P18031).
T2 sequence (P18031 whole entry): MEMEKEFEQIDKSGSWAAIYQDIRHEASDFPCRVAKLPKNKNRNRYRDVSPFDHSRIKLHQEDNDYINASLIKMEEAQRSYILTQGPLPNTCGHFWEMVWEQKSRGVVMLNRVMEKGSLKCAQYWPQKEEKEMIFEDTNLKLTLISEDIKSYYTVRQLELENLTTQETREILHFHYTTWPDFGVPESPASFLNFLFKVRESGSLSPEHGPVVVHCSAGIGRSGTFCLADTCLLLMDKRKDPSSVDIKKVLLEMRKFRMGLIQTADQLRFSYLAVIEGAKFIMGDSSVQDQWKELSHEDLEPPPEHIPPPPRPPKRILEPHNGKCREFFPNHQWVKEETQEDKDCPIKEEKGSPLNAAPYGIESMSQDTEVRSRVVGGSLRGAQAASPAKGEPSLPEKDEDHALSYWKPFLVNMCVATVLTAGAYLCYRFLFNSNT
The experiment in a line: Inhibition of human protein-tyrosine phosphatase 1B.

In test [3] the target is T1, Low molecular weight phosphotyrosine protein phosphatase. Briefly: Inhibition of human low molecular weight Protein-tyrosine phosphatase IF1.
The target of test [4] is T3, Low molecular weight phosphotyrosine protein phosphatase (Saccharomyces cerevisiae S288c, UniProt P40347).
T3 sequence (P40347 whole entry): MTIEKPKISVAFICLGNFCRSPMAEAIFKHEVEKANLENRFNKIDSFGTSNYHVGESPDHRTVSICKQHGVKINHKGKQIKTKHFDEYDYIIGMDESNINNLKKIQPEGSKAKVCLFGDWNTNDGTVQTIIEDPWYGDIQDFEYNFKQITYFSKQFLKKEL
The experiment in a line: Inhibition of Saccharomyces cerevisiae low molecular weight Protein-tyrosine phosphatase Ltp1.

For test [5], the target named is T4, Tyrosine-protein phosphatase non-receptor type 2 (Homo sapiens, UniProt P17706).
T4 sequence (P17706 whole entry): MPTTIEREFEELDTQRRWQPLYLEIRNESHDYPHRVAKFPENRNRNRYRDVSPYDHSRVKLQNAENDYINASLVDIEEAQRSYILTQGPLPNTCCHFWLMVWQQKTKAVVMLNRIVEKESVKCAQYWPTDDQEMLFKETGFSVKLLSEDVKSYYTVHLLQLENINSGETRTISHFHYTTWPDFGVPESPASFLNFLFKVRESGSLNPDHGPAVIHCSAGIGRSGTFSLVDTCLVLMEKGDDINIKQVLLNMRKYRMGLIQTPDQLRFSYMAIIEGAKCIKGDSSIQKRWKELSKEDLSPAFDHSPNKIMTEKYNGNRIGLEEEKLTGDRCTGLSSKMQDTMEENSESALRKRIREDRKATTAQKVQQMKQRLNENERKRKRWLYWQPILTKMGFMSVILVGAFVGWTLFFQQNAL
Briefly: Inhibition of human T cell protein-tyrosine phosphatase. Format: cell-based.

Test [6] addresses Receptor-type tyrosine-protein phosphatase beta (Homo sapiens, UniProt P23467). The experiment in a line: Inhibition of human protein-tyrosine phosphatase beta.
Test [7] concerns the target Receptor-type tyrosine-protein phosphatase F (Homo sapiens, UniProt P10586). The experiment in a line: Inhibition of human leukocyte antigen related protein-tyrosine phosphatase.
The nature of test [8]: Inhibition of Yersinia Tyrosine-protein phosphatase yopH. On the set-up: species or system Yersinia sp.

Chain of Receptor-type tyrosine-protein phosphatase beta (P23467 whole entry): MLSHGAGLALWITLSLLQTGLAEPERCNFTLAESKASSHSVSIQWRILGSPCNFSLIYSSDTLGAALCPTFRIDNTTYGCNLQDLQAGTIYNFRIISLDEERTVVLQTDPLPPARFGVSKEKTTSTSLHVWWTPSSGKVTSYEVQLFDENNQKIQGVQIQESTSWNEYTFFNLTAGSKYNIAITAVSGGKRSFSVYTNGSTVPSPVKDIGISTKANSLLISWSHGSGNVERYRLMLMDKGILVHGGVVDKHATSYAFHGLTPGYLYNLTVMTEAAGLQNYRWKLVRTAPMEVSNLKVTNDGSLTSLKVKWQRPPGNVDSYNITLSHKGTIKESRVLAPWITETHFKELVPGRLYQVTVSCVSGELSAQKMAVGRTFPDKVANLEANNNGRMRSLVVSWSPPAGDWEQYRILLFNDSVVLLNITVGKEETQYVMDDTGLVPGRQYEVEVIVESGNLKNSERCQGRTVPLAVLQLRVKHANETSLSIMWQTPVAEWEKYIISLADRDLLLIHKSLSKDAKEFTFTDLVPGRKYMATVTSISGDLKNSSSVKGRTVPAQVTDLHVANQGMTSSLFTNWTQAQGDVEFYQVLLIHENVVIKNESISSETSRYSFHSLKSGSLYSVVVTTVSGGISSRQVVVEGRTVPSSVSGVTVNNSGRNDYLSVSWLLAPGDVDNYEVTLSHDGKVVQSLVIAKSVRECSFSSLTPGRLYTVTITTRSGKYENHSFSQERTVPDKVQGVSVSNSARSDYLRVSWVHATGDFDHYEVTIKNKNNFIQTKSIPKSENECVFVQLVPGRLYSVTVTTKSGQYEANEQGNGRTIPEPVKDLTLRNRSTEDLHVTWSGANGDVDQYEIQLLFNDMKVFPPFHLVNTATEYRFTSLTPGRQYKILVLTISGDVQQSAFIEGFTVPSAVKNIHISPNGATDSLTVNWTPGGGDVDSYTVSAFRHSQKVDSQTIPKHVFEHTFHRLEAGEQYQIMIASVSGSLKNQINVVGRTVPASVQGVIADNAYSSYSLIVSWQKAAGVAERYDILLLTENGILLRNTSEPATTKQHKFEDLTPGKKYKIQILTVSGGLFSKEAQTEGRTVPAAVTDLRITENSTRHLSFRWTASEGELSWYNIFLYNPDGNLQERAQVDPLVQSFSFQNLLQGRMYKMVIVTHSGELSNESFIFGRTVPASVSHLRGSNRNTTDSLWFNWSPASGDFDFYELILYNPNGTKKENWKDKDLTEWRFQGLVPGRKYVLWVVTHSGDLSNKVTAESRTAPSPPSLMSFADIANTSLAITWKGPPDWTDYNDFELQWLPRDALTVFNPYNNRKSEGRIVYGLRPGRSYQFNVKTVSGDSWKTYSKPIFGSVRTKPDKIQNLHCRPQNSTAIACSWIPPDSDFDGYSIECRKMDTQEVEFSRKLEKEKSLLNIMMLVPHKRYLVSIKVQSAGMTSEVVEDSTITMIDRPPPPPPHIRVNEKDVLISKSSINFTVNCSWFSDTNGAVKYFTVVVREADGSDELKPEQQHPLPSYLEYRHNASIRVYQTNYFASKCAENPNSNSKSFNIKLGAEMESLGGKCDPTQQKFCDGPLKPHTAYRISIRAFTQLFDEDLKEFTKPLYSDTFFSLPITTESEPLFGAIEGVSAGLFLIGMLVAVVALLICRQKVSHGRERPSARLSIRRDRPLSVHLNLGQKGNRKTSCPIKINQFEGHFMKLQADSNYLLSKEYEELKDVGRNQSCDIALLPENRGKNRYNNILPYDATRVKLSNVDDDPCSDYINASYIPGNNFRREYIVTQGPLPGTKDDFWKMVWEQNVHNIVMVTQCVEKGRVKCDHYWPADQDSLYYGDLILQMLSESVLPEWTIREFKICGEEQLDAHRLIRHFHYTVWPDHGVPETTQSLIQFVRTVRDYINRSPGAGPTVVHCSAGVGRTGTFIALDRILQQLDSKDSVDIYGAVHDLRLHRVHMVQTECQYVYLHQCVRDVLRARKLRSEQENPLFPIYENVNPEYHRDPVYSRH
Chain of Receptor-type tyrosine-protein phosphatase F (P10586 whole entry): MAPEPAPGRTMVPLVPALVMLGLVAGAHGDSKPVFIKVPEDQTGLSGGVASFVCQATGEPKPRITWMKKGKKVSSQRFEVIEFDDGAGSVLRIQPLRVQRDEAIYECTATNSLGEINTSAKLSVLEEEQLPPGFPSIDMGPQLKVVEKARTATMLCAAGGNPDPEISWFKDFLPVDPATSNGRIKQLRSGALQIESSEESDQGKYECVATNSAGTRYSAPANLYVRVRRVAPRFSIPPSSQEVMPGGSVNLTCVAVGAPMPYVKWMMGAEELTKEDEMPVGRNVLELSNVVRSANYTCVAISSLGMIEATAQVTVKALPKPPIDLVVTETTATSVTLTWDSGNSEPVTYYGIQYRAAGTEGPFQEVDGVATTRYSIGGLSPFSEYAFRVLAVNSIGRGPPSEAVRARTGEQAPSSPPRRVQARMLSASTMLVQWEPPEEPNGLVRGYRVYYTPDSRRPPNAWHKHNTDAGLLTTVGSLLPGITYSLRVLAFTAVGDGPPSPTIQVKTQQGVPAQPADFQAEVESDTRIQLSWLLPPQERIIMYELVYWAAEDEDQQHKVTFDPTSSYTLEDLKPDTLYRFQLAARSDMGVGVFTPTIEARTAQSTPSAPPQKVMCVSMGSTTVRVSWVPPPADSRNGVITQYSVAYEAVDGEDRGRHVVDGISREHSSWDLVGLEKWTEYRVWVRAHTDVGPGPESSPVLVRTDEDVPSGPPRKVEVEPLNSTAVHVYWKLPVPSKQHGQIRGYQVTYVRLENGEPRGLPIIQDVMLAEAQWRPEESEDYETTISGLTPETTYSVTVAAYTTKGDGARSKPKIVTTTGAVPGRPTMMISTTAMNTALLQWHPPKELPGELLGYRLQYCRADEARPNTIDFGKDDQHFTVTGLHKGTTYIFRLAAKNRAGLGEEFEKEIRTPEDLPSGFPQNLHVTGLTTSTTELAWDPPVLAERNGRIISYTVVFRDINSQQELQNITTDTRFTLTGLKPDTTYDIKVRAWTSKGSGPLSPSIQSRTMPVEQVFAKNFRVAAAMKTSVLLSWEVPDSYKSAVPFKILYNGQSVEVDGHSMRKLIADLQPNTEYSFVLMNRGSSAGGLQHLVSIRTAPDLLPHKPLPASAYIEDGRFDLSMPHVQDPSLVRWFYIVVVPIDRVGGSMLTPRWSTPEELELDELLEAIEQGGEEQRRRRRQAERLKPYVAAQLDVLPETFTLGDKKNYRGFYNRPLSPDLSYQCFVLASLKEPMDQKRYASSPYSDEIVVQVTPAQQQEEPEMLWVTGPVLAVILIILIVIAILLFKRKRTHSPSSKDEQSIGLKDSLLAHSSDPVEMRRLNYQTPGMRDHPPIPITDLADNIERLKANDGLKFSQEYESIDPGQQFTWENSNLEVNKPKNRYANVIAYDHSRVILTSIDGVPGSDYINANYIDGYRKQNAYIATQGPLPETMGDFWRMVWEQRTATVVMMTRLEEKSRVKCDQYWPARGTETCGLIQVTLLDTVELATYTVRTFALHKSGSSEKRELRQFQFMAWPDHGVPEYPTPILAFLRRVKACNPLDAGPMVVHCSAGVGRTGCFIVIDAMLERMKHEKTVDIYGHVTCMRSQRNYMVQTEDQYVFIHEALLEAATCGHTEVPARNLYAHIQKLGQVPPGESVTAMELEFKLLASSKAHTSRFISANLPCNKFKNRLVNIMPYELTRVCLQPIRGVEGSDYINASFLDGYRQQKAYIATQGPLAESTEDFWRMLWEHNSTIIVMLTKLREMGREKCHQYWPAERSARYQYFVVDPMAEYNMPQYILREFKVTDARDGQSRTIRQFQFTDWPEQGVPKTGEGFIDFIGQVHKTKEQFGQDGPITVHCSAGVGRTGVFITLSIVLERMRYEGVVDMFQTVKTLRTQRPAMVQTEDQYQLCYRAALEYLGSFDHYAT

Usually IC50 stands for the midpoint of a concentration-inhibition curve. In the case of `O=C(O)c1ccc(CN2C(=O)S/C(=C\c3cccc(Oc4ccccc4)c3)C2=O)cc1`, the IC50 was 130 µM in test [1], 18 µM in test [2], 37 µM in test [3] and 483 µM in test [4].

Regarding `O=C(O)c1ccc(CN2C(=O)S/C(=C\c3ccc(OCc4ccccc4)cc3)C2=O)cc1`, the IC50 in test [1] came out at 5.6 µM; in test [5], 1300 nM; in test [6], 400 nM; in test [2], 1.6 µM; in test [7], 27 µM; in test [3] it was 2.5 µM. In addition, the IC50 in test [8] stood at 300 nM; in test [4] it was 15 µM.

`O=C(O)c1ccc(CN2C(=O)S/C(=C\c3cccc(OCc4ccccc4)c3)C2=O)cc1`: the IC50 in test [1] was 18.4 µM; in test [2], 1.1 µM; in test [3] it was 7.1 µM; in test [4], 19.7 µM.

In the case of `O=C(O)c1ccc(CN2C(=O)S/C(=C\c3ccc4ccccc4c3)C2=O)cc1`, the concentration for half-maximal inhibition (IC50) in test [1] is 92 µM; in test [2], 6.5 µM; in test [3] it was 12 µM; in test [4] it was 149 µM.

With `COc1cc(/C=C2\SC(=O)N(Cc3ccc(C(=O)O)cc3)C2=O)ccc1O`, the IC50 in test [1] was determined as 26.6 µM; in test [2] it was 2.6 µM; in test [3] it was 9.1 µM; in test [4], 389 µM.

`O=C(O)c1ccc(CN2C(=O)S/C(=C\c3cccc(O)c3)C2=O)cc1`: the IC50 amounted to 112 µM in test [1], 10.2 µM in test [2], 85.7 µM in test [3] and 1390 µM in test [4].

Consider `O=C(O)c1ccc(CN2C(=O)S/C(=C\c3cccc4ccccc34)C2=O)cc1`, for which the IC50 was found to be 138 µM in test [1], 5.5 µM in test [2], 122 µM in test [3] and 99 µM in test [4].

For `O=C(O)COc1ccc(/C=C2\SC(=O)N(Cc3ccc(C(=O)O)cc3)C2=O)cc1`, the IC50 was 1640 µM in test [1], 85 µM in test [2], 219 µM in test [3] and greater than 450 µM in test [4].

Consider `O=C(O)c1ccc(CN2C(=O)S/C(=C\c3ccc(Oc4ccccc4)cc3)C2=O)cc1`, for which the IC50 was found to be 13 µM in test [1]; 2800 nM in test [5]; 1100 nM in test [6]; 2.8 µM in test [2]; 0.9 µM in test [3]; 1000 nM in test [8]. In test [4], this molecule had an IC50 of 34 µM.

In the case of `O=C(O)c1ccc(CN2C(=O)S/C(=C\c3ccc(O)cc3)C2=O)cc1`, the 50% inhibitory concentration (IC50) in test [1] came out at 85 µM; in test [2] it was 10 µM; in test [3] it was 30 µM; in test [4] it was 188 µM.
